# From US10519154B2, “7-substituted 1-pyridyl-naphthyridine-3-carboxylic acid amides and use thereof” (Bayer Pharma Aktiengesellschaft, priority 2016, dated 2019)
# Assays:
# [1] = molecular target: T1, human M2 receptor (Homo sapiens, UniProt P08172); assay: Functional M2-GIRK1/4 activation test: positive cooperativity (alpha factor); details: shift of acetylcholine dose-response curve (Allosteric EC50 shift); CHO-DUKX-M2-GIRK cells
# T1 sequence (P08172 1-466): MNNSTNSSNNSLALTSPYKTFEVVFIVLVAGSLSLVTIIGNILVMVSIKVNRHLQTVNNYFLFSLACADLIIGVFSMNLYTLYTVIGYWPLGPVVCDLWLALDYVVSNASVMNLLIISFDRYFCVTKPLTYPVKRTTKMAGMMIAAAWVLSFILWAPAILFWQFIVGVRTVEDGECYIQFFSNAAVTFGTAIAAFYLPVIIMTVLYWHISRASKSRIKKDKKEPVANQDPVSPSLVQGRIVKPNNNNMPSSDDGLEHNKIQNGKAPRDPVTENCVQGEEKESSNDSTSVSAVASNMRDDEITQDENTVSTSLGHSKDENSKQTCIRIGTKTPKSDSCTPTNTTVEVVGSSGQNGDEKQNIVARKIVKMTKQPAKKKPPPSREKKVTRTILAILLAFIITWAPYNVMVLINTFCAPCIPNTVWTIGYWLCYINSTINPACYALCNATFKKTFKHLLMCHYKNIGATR
# Text: The binding of orthosteric agonists (endogenous ligand: acetylcholine) to the M2 receptor leads to receptor activation or a change in conformation of the receptor in the manner of a shift in equilibrium in favor of the active receptor conformation.
# The agonist-induced change in conformation of the M2 receptor results in a Gαi protein activation. […] Under physiological conditions, the result is then a selective efflux of potassium from the cell along the electrochemical gradient. […] The extent of hyperpolarization can therefore be regarded as a measure of the activation of the M2 receptor.
# The test cell used is a recombinant CHO-DUKX cell line which has been stably transfected with cDNA coding for the human M2 receptor and with cDNA coding for both GIRK1/4 subunits (CHO-DUKX-M2-GIRK). The transmembrane potential, or the relative changes in the transmembrane potential as a function of substance addition or M2 activation, is determined by means of a voltage-sensitive dye (FLIPR Membrane Potential Assay Kit Blue, Molecular Devices #R8034) and the measurement of cell fluorescence using a proprietary fluorescence imaging instrument.
# In accordance with the desired test concentrations, the substances were pre-diluted in loading buffer (see above).
# The sowing medium consisted of MEM alpha medium (supplemented with 5% FCS, 2% Glutamax, no genticin).
# For the particular measurement, the medium was removed and the cells were laden with the voltage-sensitive dye for at least 6 min at room temperature (30 μl of loading buffer per 384-well). This was followed, in a first measurement, by the determination of the resting transmembrane potential for a period of 5 sec in 1 sec increments. Thereafter, 10 μl in each case of the test substances diluted in loading buffer are added, followed by a second measurement to determine the transmembrane potential for a period of 50 sec in 1 sec increments.
# Finally, the cells are admixed with 10 μl of agonist solution (acetylcholine dissolved in loading buffer). In contrast to the EC50 determination of the test substances (see B-1.1), however, this is not done using one acetylcholine concentration; instead, every concentration of the test substance is combined with an acetylcholine 8-point dose-response curve. […] The M2-mediated GIRK1/4 activation or hyperpolarization is then monitored in a third measurement over a period of 60 sec in 1 sec increments. The shift in the acetylcholine dose-response curve in the presence of increasing concentrations of the test substance is analyzed and quantified by means of GraphPad PRISM (Allosteric EC50 shift). […] Positive cooperativity is the hallmark of a positive allosteric modulator. […] The greater the magnitude of the cc value, the greater the extent of cooperativity between orthosteric and allosteric.
# [2] = molecular target: T1, human M2 receptor; assay: Functional M2-GIRK1/4 activation test: allosteric potency (EC50) and efficiency; details: for EC50: Receptor activity EC50, CHO-DUKX-M2-GIRK cells, acetylcholine at EC20, in some cases mean of two or more determinations; for Emax: read-out: Efficiency, boosting of the acetylcholine effect at EC20 acetylcholine concentration; for Emax / Efficiency: CHO-DUKX-M2-GIRK cells; for Efficiency: boosting of the acetylcholine effect at EC20 acetylcholine concentration
Cooperativity (alpha factor) [1],EC50 [2] [nM],Emax [2] [%],Efficiency [2] [%],SMILES
68,10,100,–,"CC(C)(C)[C@@H](NC(=O)c1cn(-c2ncc(F)cc2F)c2nc(N3C[C@@H](O)CC3=O)ccc2c1=O)C(F)(F)F [Example 73, 1-(3,5-Difluoropyridin-2-yl)-7-[(4S)-4-hydroxy-2-oxopyrrolidin-1-yl]-4-oxo-N-[(2R)-1,1,1-trifluoro-3,3-dimethylbutan-2-yl]-1,4-dihydro-1,8-naphthyridine-3-carboxamide]"
56,23,100,–,"CC(C)(C)[C@H](NC(=O)c1cn(-c2ncc(F)cc2F)c2nc(N3C[C@@H](O)CC3=O)ccc2c1=O)C(F)(F)F [Example 98, 1-(3,5-Difluoropyridin-2-yl)-7-[(4S)-4-hydroxy-2-oxopyrrolidin-1-yl]-4-oxo-N-[(2S)-1,1,1-trifluoro-3,3-dimethylbutan-2-yl]-1,4-dihydro-1,8-naphthyridine-3-carboxamide]"
41,24,–,100.00,"CC(NC(=O)c1cn(-c2ncc(F)cc2F)c2nc(N3C[C@@H](O)[C@H](O)C3)ccc2c1=O)C(F)(F)C(F)(F)F (single isomer, unassigned) [Example 90]"
40,48,99,–,"O=C(Nc1c(Cl)cccc1Cl)c1cn(-c2ncc(F)cc2F)c2nc(N3C[C@@H](O)CC3=O)ccc2c1=O [Example 16, N-(2,6-Dichlorophenyl)-1-(3,5-difluoropyridin-2-yl)-7-[(4S)-4-hydroxy-2-oxopyrrolidin-1-yl]-4-oxo-1,4-dihydro-1,8-naphthyridine-3-carboxamide]"
14,64,99,–,"CC[C@H](NC(=O)c1cn(-c2ncc(F)cc2F)c2nc(N3CC(C)CC3=O)ccc2c1=O)C(F)(F)F (stereo partly drawn) [Example 30, 1-(3,5-Difluoropyridin-2-yl)-7-[4-methyl-2-oxopyrrolidin-1-yl]-4-oxo-N-[(2S)-1,1,1-trifluorobutan-2-yl]-1,4-dihydro-1,8-naphthyridine-3-carboxamide]"
57,20,100,–,"O=C(NC(c1ccccc1Cl)C(F)(F)F)c1cn(-c2ncc(F)cc2F)c2nc(N3C[C@@H](O)[C@H](O)C3)ccc2c1=O (single isomer, unassigned) [Example 84]"
63,43,96.2,–,"O=C(NC(C(F)(F)F)C(F)(F)F)c1cn(-c2ncc(F)cc2F)c2nc(N3C[C@@H](O)CC3=O)ccc2c1=O [Example 15, 1-(3,5-Difluoropyridin-2-yl)-N-(1,1,1,3,3,3-hexafluoropropan-2-yl)-7-[(4S)-4-hydroxy-2-oxopyrrolidin-1-yl]-4-oxo-1,4-dihydro-1,8-naphthyridine-3-carboxamide]"
53,38,–,96.50,"CCC(NC(=O)c1cn(-c2ncc(F)cc2F)c2nc(N3C[C@@H](O)[C@H](O)C3)ccc2c1=O)C(F)(F)C(F)(F)F (single isomer, unassigned) [Example 97]"
61,70,98.5,–,"O=C(N[C@H](C1CC1)C(F)(F)F)c1cn(-c2ncc(F)cc2F)c2nc(N3C[C@@H](O)CC3=O)ccc2c1=O [Example 138, N-[(1R)-1-Cyclopropyl-2,2,2-trifluoroethyl]-1-(3,5-difluoropyridin-2-yl)-7-[(4S)-4-hydroxy-2-oxopyrrolidin-1-yl]-4-oxo-1,4-dihydro-1,8-naphthyridine-3-carboxamide]"
47,253,92,–,"CC[C@@H](NC(=O)c1cn(-c2ncccc2F)c2nc(N3C[C@@H](O)CC3=O)ccc2c1=O)C(F)(F)F [Example 140, 1-(3-Fluoropyridin-2-yl)-7-[(4S)-4-hydroxy-2-oxopyrrolidin-1-yl]-4-oxo-N-[(2R)-1,1,1-trifluorobutan-2-yl]-1,4-dihydro-1,8-naphthyridine-3-carboxamide]"
63,31,–,98.25,"O=C(NC(c1ccccc1Cl)C(F)(F)F)c1cn(-c2ncc(F)cc2F)c2nc(N3C[C@@H](O)CC3=O)ccc2c1=O (single isomer, unassigned) [Example 5]"
79,110,100,–,"O=C(NC(C(F)(F)F)C(F)(F)F)c1cn(-c2ncc(F)cc2F)c2nc(N3C[C@@H](O)[C@@H](O)C3)ccc2c1=O [Example 55, 1-(3,5-Difluoropyridin-2-yl)-7-[(3R,4S)-3,4-dihydroxypyrrolidin-1-yl]-N-(1,1,1,3,3,3-hexafluoropropan-2-yl)-4-oxo-1,4-dihydro-1,8-naphthyridine-3-carboxamide]"
17,19,100,–,"CC1CC(=O)N(c2ccc3c(=O)c(C(=O)N[C@H](C4CC4)C(F)(F)F)cn(-c4ncc(F)cc4F)c3n2)C1 (single isomer, unassigned) [Example 28]"
63,14,98.2,–,"O=C(NC(c1ccccc1Cl)C(F)(F)F)c1cn(-c2ncc(F)cc2F)c2nc(N3C[C@@H](O)CC3=O)ccc2c1=O (mixture of isomers) [Example 4, N-[1-(2-Chlorophenyl)-2,2,2-trifluoroethyl]-1-(3,5-difluoropyridin-2-yl)-7-[(4S)-4-hydroxy-2-oxopyrrolidin-1-yl]-4-oxo-1,4-dihydro-1,8-naphthyridine-3-carboxamide]"
32,154,91.3,–,"CC[C@H](NC(=O)c1cn(-c2ncc(F)cc2F)c2nc(N3CCNC3=O)ccc2c1=O)C(F)(F)F [Example 64, 1-(3,5-Difluoropyridin-2-yl)-4-oxo-7-(2-oxoimidazolidin-1-yl)-N-[(2S)-1,1,1-trifluorobutan-2-yl]-1,4-dihydro-1,8-naphthyridine-3-carboxamide]"
30,13,84,–,"CCC(NC(=O)c1cn(-c2ncc(F)cc2F)c2nc(N3CCNC3=O)ccc2c1=O)C(F)(F)C(F)(F)F (single isomer, unassigned) [Example 165, 1-(3,5-Difluoropyridin-2-yl)-4-oxo-7-(2-oxoimidazolidin-1-yl)-N-[1,1,1,2,2-pentafluoropentan-3-yl]-1,4-dihydro-1,8-naphthyridine-3-carboxamide]"
50,87,98.5,–,"O=C(N[C@@H](C1CC1)C(F)(F)F)c1cn(-c2ncc(F)cc2F)c2nc(N3C[C@@H](O)CC3=O)ccc2c1=O [Example 14, N-[(1S)-1-Cyclopropyl-2,2,2-trifluoroethyl]-1-(3,5-difluoropyridin-2-yl)-7-[(4S)-4-hydroxy-2-oxopyrrolidin-1-yl]-4-oxo-1,4-dihydro-1,8-naphthyridine-3-carboxamide]"
34,67,87,–,"CCC(COC(F)(F)F)NC(=O)c1cn(-c2ncc(F)cc2F)c2nc(N3C[C@@H](O)CC3=O)ccc2c1=O (single isomer, unassigned) [Example 18]"
41,14,98,–,"CCC(NC(=O)c1cn(-c2ncc(F)cc2F)c2nc(N3C[C@@H](O)CC3=O)ccc2c1=O)C(F)(F)C(F)(F)F (single isomer, unassigned) [Example 93]"
10,36,79,–,"CC1CC(=O)N(c2ccc3c(=O)c(C(=O)N[C@H](C4CC4)C(F)(F)F)cn(-c4ncc(F)cc4F)c3n2)C1 (mixture of isomers) [Example 27, N-[(1R)-1-Cyclopropyl-2,2,2-trifluoroethyl]-1-(3,5-difluoropyridin-2-yl)-7-[4-methyl-2-oxopyrrolidin-1-yl]-4-oxo-1,4-dihydro-1,8-naphthyridine-3-carboxamide]"
–,55,98.5,–,"O=C(NC(c1ccccc1Cl)C(F)(F)F)c1cn(-c2ncc(F)cc2F)c2nc(N3CCNC3=O)ccc2c1=O (racemic) [Example 147, N-[1-(2-Chlorophenyl)-2,2,2-trifluoroethyl]-1-(3,5-difluoropyridin-2-yl)-4-oxo-7-(2-oxoimidazolidin-1-yl)-1,4-dihydro-1,8-naphthyridine-3-carboxamide]"
–,195,98.5,–,"O=C(N[C@H](C1CC1)C(F)(F)F)c1cn(-c2ncc(F)cc2Cl)c2nc(N3C[C@@H](O)CC3=O)ccc2c1=O [Example 21, 1-(3-Chloro-5-fluoropyridin-2-yl)-N-[(1R)-1-cyclopropyl-2,2,2-trifluoroethyl]-7-[(4S)-4-hydroxy-2-oxopyrrolidin-1-yl]-4-oxo-1,4-dihydro-1,8-naphthyridine-3-carboxamide]"
